Laboratory results from US20080114047A1 (priority 2003, published 2008).
Counter-ions that a name gives are not always drawn. Like-named read-outs stand apart in the source and are kept apart here.

Assays:
[1] = test system: Trypanosoma brucei rhodesiense; assay: Anti-protozoan data: T.b.r. IC50; type: cell-based; conditions: read-out: T.b.r. IC50
Plasmodium falciparum = assay: Anti-protozoan data: P. falcip. IC50; type: cell-based; conditions: read-out: P. falcip. IC50
[2] = test system: L. donovani axenic amastigotes; assay: In vitro anti-leishmania activity (IC50 vs. L. donovani axenic amastigotes); type: cell-based; conditions: Leishmania donovani
[3] = Tables VI(a), VI(c), read-out: Leishmania donovani IC50
[4] = axenic amastigotes, Tables I-V, read-out: IC50 vs. L. donovani

CC(C)NC(=N)c1ccc(OCCCCOc2cccc(-c3cc4ccc(C(=N)NC(C)C)cc4o3)c2)cc1.Cl.Cl [Compound 60, 2-(3-(4-(4-(N-Isopropylcarbamimidoyl)phenoxy)butoxy)phenyl)-N-isopropylbenzofuran-6-carboxamidine dihydrochloride]
melting point: 228 to 230 °C | IC50 (in vitro): 46500 nM | IC50 ([1]; Tables VI(a), VI(c)): 936 nM | IC50 (Plasmodium falciparum; Tables VI(a), VI(c)): 178 nM | IC50 [2, 3]: 12300 ± 90 nM | IC50 [2, 4]: 12300 ± 90 nM

c1cc(OCCCCCCOc2ccc(C3=NCCN3)cc2)cc(-c2cc3cc(C4=NCCN4)ccc3o2)c1 [Compound 43, 2-(2-(3-(6-(4-(4,5-Dihydro-1H-imidazol-2-yl)phenoxy)hexyloxy)phenyl)benzofuran-5-yl)-4,5-dihydro-1H-imidazole]
IC50 (in vitro): 2460 nM | IC50 ([1]; Tables VI(a), VI(c)): 996 nM | IC50 (Plasmodium falciparum; Tables VI(a), VI(c)): 49.4 nM | IC50 [2, 3]: 1920 ± 190 nM

c1cc(C2=NCCN2)cc(-c2cc3ccc(C4=NCCN4)cc3o2)c1 [Compound 171, 2-(3-(6-(4,5-dihydro-1H-imidazol-2-yl)benzofuran-2-yl)phenyl)-4,5-dihydro-1H-imidazole]
IC50 (in vitro): 12800 nM | IC50 [1]: 332 nM | IC50 (Plasmodium falciparum): 205 nM | IC50 [2, 4]: > 100000 nM | IC50 ([2]; read-out: L. Donovani IC50): > 100000 nM

CC(C)NC(=N)c1ccc(OCCCCCCOc2cccc(-c3cc4ccc(C(=N)NC(C)C)cc4o3)c2)cc1.Cl.Cl [Compound 66, 2-(3-(6-(4-(N-Isopropylcarbamimidoyl)phenoxy)hexyloxy)phenyl)-N-isopropylbenzofuran-6-carboxamidine dihydrochloride]
melting point: 283 to 285 °C | IC50 (in vitro): 10100 nM | IC50 ([1]; Tables VI(a), VI(c)): 420 nM | IC50 (Plasmodium falciparum; Tables VI(a), VI(c)): 347 nM | IC50 [2, 3]: 6180 ± 60 nM | IC50 [2, 4]: 6180 ± 60 nM

Cl.Cl.N=C(N)c1ccc(OCCCCCCOc2cccc(-c3cc4cc(C(=N)N)ccc4o3)c2)cc1 [Compound 41, 2-(3-(6-(4-Carbamimidoylphenoxy)hexyloxy)phenyl)benzofuran-5-carboxamidine dihydrochloride]
melting point: 208 to 210 °C | IC50 (in vitro): 3120 nM | IC50 ([1]; Tables VI(a), VI(c)): 1610 nM | IC50 (Plasmodium falciparum; Tables VI(a), VI(c)): 430 nM | IC50 [2, 3]: 22600 ± 230 nM | IC50 [2, 4]: 22600 ± 230 nM

Cl.Cl.N=C(N)c1ccc(OCCCCCCOc2ccc(-c3cc4ccc(C(=N)N)cc4o3)cc2)cc1 [Compound 77, 2-(4-(6-(4-Carbamimidoylphenoxy)hexyloxy)phenyl)benzofuran-6-carboxamidine dihydrochloride]
melting point: 310 to 311 °C | IC50 (in vitro): 8020 nM | IC50 ([1]; Tables VI(a), VI(c)): 416 nM | IC50 (Plasmodium falciparum; Tables VI(a), VI(c)): 280 nM

COc1cc(C(=N)N)cc2cc(-c3ccc(C(=N)N)cc3)oc12 [Compound 175, 2-(4-carbamimidoylphenyl)-7-methoxybenzofuran-5-carboxamidine]
IC50 (in vitro): 30700 nM | IC50 [1]: 6 nM | IC50 (Plasmodium falciparum): 5.6 nM | IC50 [2, 4]: 3000 ± 560 nM | IC50 ([2]; read-out: L. Donovani IC50): 3000 ± 560 nM

N=C(NO)c1ccc(-c2cc3ccc(C(=N)NO)cc3o2)cc1 [Compound 181, 2-(4-(N-Hydroxycarbamimidoyl)phenyl)-N-hydroxybenzofuran-6-carboxamidine]
IC50 (in vitro): > 222000 nM | IC50 [1]: 3100 nM | IC50 (Plasmodium falciparum): 609 nM | IC50 ([2]; read-out: L. Donovani IC50): > 100000 nM

N=C(NO)c1ccc2oc(CCc3cc4cc(C(=N)NO)ccc4o3)cc2c1 [Compound 190, 2-(2-(5-(N-Hydroxycarbamimidoyl)benzofuran-2-yl)ethyl)-N-hydroxybenzofuran-5-carboxamidine]
IC50 (in vitro): > 199000 nM | IC50 ([1]; Tables VI(a), VI(c)): 10100 nM | IC50 (Plasmodium falciparum; Tables VI(a), VI(c)): 400 nM

Cl.Cl.N=C(N)c1ccc(OCCCCCOc2ccc(-c3cc4ccc(C(=N)N)cc4o3)cc2)cc1 [Compound 74, 2-(4-(5-(4-Carbamimidoylphenoxy)pentyloxy)phenyl)benzofuran-6-carboxamidine dihydrochloride]
melting point: 285 °C (dec.) | IC50 (in vitro): 8980 nM | IC50 ([1]; Tables VI(a), VI(c)): 314 nM | IC50 (Plasmodium falciparum; Tables VI(a), VI(c)): 268 nM | IC50 [2, 3]: 2900 ± 140 nM

N=C(N)c1ccc(-c2cc3ccc(C(=N)N)cc3o2)cc1 [Compound 172, 2-(4-carbamimidoylphenyl)benzofuran-6-carboxamidine]
IC50 (in vitro): 830 nM | IC50 [1]: 6.9 nM | IC50 (Plasmodium falciparum): 3.1 nM | IC50 [2, 4]: 3130 ± 150 nM | IC50 ([2]; read-out: L. Donovani IC50): 3130 ± 150 nM

CC(C)NC(=N)c1ccc(OCCCCOc2cccc(-c3cc4cc(C(=N)NC(C)C)ccc4o3)c2)cc1.Cl.Cl [Compound 36, 2-(3-(4-(4-(N-Isopropylcarbamimidoyl)phenoxy)butoxy)phenyl)-N-isopropylbenzofuran-5-carboxamidine dihydrochloride]
melting point: 207 to 210 °C | IC50 (in vitro): 36500 nM | IC50 ([1]; Tables VI(a), VI(c)): 537 nM | IC50 (Plasmodium falciparum; Tables VI(a), VI(c)): 269 nM | IC50 [2, 3]: 11200 ± 40 nM | IC50 [2, 4]: 11200 ± 40 nM

CC(C)NC(=N)c1ccc(OCCCCCCOc2cccc(-c3cc4cc(C(=N)NC(C)C)ccc4o3)c2)cc1.Cl.Cl [Compound 42, 2-(3-(6-(4-(N-Isopropylcarbamimidoyl)phenoxy)hexyloxy)phenyl)-N-isopropylbenzofuran-5-carboxamidine dihydrochloride]
melting point: 224 to 227 °C | IC50 (in vitro): 7360 nM | IC50 ([1]; Tables VI(a), VI(c)): 1160 nM | IC50 (Plasmodium falciparum; Tables VI(a), VI(c)): 183 nM | IC50 [2, 3]: 6970 ± 1390 nM | IC50 [2, 4]: 6970 ± 1390 nM

CC(C)NC(=N)c1cccc(-c2cc3ccc(C(=N)NC(C)C)cc3o2)c1 [Compound 170, 2-(3-(N-isopropylcarbamimidoyl)phenyl)-N-isopropylbenzofuran-6-carboxamidine]
IC50 (in vitro): > 200000 nM | IC50 [1]: 534 nM | IC50 (Plasmodium falciparum): 58.6 nM | IC50 [2, 4]: 24400 ± 100 nM | IC50 ([2]; read-out: L. Donovani IC50): 24400 ± 100 nM

N=C(N)c1cccc(-c2cc3ccc(C(=N)N)cc3o2)c1 [Compound 169, 2-(3-carbamimidoylphenyl)benzofuran-6-carboxamidine]
IC50 (in vitro): 131000 nM | IC50 [1]: 21 nM | IC50 (Plasmodium falciparum): 3.5 nM | IC50 [2, 4]: 14400 nM | IC50 ([2]; read-out: L. Donovani IC50): 14400 nM

COc1cc(C2=NCCN2)cc2cc(-c3ccc(C4=NCCN4)cc3)oc12 [Compound 177, 2-(4-(5-(4,5-dihydro-1H-imidazol-2-yl)-7-methoxybenzofuran-2-yl)phenyl)-4,5-dihydro-1H-imidazole]
IC50 (in vitro): 19900 nM | IC50 [1]: 124 nM | IC50 (Plasmodium falciparum): 32.3 nM | IC50 [2, 4]: 4450 ± 360 nM | IC50 ([2]; read-out: L. Donovani IC50): 4450 ± 360 nM

N=C(NO)c1cccc(-c2cc3ccc(C(=N)NO)cc3o2)c1 [Compound 180, 2-(3-(N-Hydroxycarbamimidoyl)phenyl)-N-hydroxybenzofuran-6-carboxamidine]
IC50 (in vitro): 13800 nM | IC50 [1]: 37800 nM | IC50 (Plasmodium falciparum): 1850 nM | IC50 ([2]; read-out: L. Donovani IC50): 68500 ± 6160 nM

c1cc(-c2cc3ccc(C4=NCCN4)cc3o2)ccc1C1=NCCN1 [Compound 174, 2-(4-(6-(4,5-dihydro-1H-imidazol-2-yl)benzofuran-2-yl)phenyl)-4,5-dihydro-1H-imidazole]
IC50 (in vitro): 4520 nM | IC50 [1]: 319 nM | IC50 (Plasmodium falciparum): 109 nM | IC50 [2, 4]: > 50000 nM | IC50 ([2]; read-out: L. Donovani IC50): > 50000 nM

N=C(NO)c1ccc2oc(CCCCc3cc4cc(C(=N)NO)ccc4o3)cc2c1 (as salt: HCl) [Compound 186, 2-(4-(5-(N-Hydroxycarbamimidoyl)benzofuran-2-yl)butyl)-N-hydroxybenzofuran-5-carboxamidine]
melting point: 231 °C (dec.)

N=C(NO)c1ccc(OCCCCCOc2ccc(-c3cc4cc(C(=N)NO)ccc4o3)cc2)cc1 [Compound 183, 2-(4-(5-(4-(N-Hydroxycarbamimidoyl)phenoxy)pentyloxy)phenyl)-N-hydroxybenzofuran-5-carboxamidine]
IC50 (in vitro): 8280 nM | IC50 ([1]; Tables VI(a), VI(c)): 1560 nM | IC50 (Plasmodium falciparum; Tables VI(a), VI(c)): 291 nM

c1cc(OCCCCCCOc2ccc(C3=NCCN3)cc2)cc(-c2cc3cc(C4=NCCN4)ccc3o2)c1 (as salt: salt) [Compound 43, 2-(2-(3-(6-(4-(4,5-Dihydro-1H-imidazol-2-yl)phenoxy)hexyloxy)phenyl)benzofuran-5-yl)-4,5-dihydro-1H-imidazole]
melting point: 178 to 182 °C

CC(C)NC(=N)c1ccc(-c2cc3ccc(C(=N)NC(C)C)cc3o2)cc1 [Compound 173, 2-(4-(N-isopropylcarbamimidoyl)phenyl)-N-isopropylbenzofuran-6-carboxamidine]
IC50 (in vitro): > 199000 nM | IC50 [1]: 148 nM | IC50 (Plasmodium falciparum): 14.5 nM | IC50 [2, 4]: 11800 ± 1280 nM | IC50 ([2]; read-out: L. Donovani IC50): 11800 ± 1280 nM

Cl.Cl.c1cc2cc(CCCCCc3cc4ccc(C5=NCCN5)cc4o3)oc2cc1C1=NCCN1 [Compound 31, 4,5-Dihydro-2-(2-(5-(6-(4,5-dihydro-1H-imidazol-2-yl)benzofuran-2-yl)pentyl)benzofuran-6-yl)-1H-imidazole dihydrochloride]
melting point: 308 to 310 °C (dec.)

N=C(NO)c1cccc(-c2cc3ccc(C(=N)NO)cc3o2)c1 (as salt: HCl) [Compound 180, 2-(3-(N-Hydroxycarbamimidoyl)phenyl)-N-hydroxybenzofuran-6-carboxamidine]
melting point: 210 °C (dec.)

N=C(NO)c1ccc2cc(CCCCCc3cc4ccc(C(=N)NO)cc4o3)oc2c1 (as salt: HCl) [Compound 184, 2-(5-(6-(N-Hydroxycarbamimidoyl)benzofuran-2-yl)pentyl)-N-hydroxybenzofuran-6-carboxamidine]
melting point: 220 °C (dec.)

Cl.Cl.N=C(N)c1ccc2cc(CCCCCc3cc4ccc(C(=N)N)cc4o3)oc2c1 [Compound 29, 2-(5-(6-Amidinobenzofuran-2-yl)pentyl)benzofuran-6-carboxamidine dihydrochloride]
melting point: 243 to 245 °C (dec.)

Cl.Cl.c1cc2oc(CCc3cc4cc(C5=NCCN5)ccc4o3)cc2cc1C1=NCCN1 [Compound 10, 4,5-Dihydro-2-(2-(2-(5-(4,5-dihydro-1H-imidazol-2-yl)benzofuran-2-yl)ethyl)benzofuran-5-yl)-1H-imidazole dihydrochloride]
melting point: 366 °C (dec.)
